According to paper PMC2867821 (Molecular Cancer, 2010):
Like-named read-outs stand apart in the source and are kept apart here. Residues, ends and D or L forms follow the SMILES beside them. *: point of attachment. Cbz = O=C(OCc1ccccc1)*; CH2F = FC*

Experiments:
SK-MEL-110 [1] = assay: Proliferation of SK-MEL-110 on collagen-IV with FGF-2 (cell count); type: cell-based, human; details: 500 μg/ml, 48 h, FGF-2 10 ng/ml
Method: Representative images are reported. […] Three independent experiments were performed.

SK-MEL-110 [2] = system: SK-MEL-110
[3] = molecular target: T1, GST-C-terminus-survivin (Lys90-Asp142) (Homo sapiens, UniProt O15392); assay: Solid phase assay, GST-fusion protein; type: binding
T1 construct: C-terminus (Lys90-Asp142); made in house; host or cells: E. coli BL21(DE3)pLysS
T1 sequence (O15392 90-142): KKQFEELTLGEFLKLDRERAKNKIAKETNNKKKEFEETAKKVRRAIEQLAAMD
Method: (§1) Three independent experiments were performed.
(§2) Full length survivin and both N-terminus (Met1-Gly99) or C-terminus (Lys90-Asp142) were PCR amplified and cloned, using EcoRI and BamHI restriction sites, in pGex6P2 (GE Healthcare) for expression of GST fusion proteins in E. coli BL21(DE3)pLysS (PROMEGA, Southampton, United Kingdom).
(§3) Briefly, microtiter plates (Costar, Cambridge, MA) were coated with 175 nM (100 μl/well) recombinant GST-fusion proteins diluted in AC7.5 buffer for 4 h at RT. […] After washing four times and incubation for 1 h at RT with 100 μl/well Vectastain-ABC Reagent (Vector Laboratories, Burlingame, CA), wells were stained with the ELISA Amplification System (Invitrogen, Carlsbad, CA) according to manufacturer's instructions and absorption at 495 nm (A495) was determined. Specific binding was computed by subtracting nonspecific from total binding at each concentration. Curve fit was carried out according to the following one-site specific bind equation (GraphPad Prism-4 software):(1) [drawing 1]
(§4) where X is ligand concentration, Y is the specific binding, Bmax is the maximum specific binding in the same units as Y, Kd is the equilibrium binding constant, in the same units as X.

GST-Full length survivin = GST-Full length survivin (Homo sapiens, UniProt O15392); assay: Solid phase assay, GST-fusion protein; type: binding; parameters: Full length survivin and both N-terminus (Met1-Gly99) or C-terminus (Lys90-Asp142) were PCR amplified and cloned; made in house; host or cells: E. coli BL21(DE3)pLysS
GST-Full length survivin, sequence (O15392 whole entry, the tested form may be a part): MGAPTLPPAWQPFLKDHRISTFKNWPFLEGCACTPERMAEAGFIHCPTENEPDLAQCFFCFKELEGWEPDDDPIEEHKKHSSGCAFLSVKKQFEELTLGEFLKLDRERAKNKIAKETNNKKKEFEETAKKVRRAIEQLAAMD
Method: as §1, §2, §3, §4

SK-MEL-110 [4] = assay: RGDS anti-proliferative effect after pre-treatment with caspase inhibitor; type: cell-based, human; details: Z-VAD-FMK 50 μM, 2 h pre-treatment, then RGDS; p < 0.005 vs FGF-2 in the presence of Z-VAD-FMK
survivin = system: survivin; parameters: method as in PMID 17389612, PMID 18537980; details: wide range of tumor cells; cited from earlier work
active caspase-3 = assay: Caspase-3 activation by confocal microscopy; type: cell-based, human; details: 500 μg/ml, 48 h, FGF-2; anti-active caspase-3 antibody
SK-MEL-110 [5] = assay: Peptide internalization in SK-MEL-110 by FACS (PE-avidin); details: biotinylated peptide

Method for SK-MEL-110 and HUVEC: Cytoplasmic lysates were spotted onto nitrocellulose, blocked with 5% milk in TPBS (0.1% Tween 20 in PBS) and incubated for 1 h at RT with a Vectastain ABC-peroxidase kit (Vector) followed by chemiluminescence reaction and exposure to Kodak film (Eastman Kodak). Interaction was quantified by densitometry (GS 710; Bio-Rad) and analyzed using the "Quantity one" software (Bio-Rad).
Three independent experiments were carried out.

NC(N)=NCCC[C@H](N)C(=O)NCC(=O)N[C@@H](CC(=O)O)C(=O)N[C@@H](CO)C(=O)O [RGDS, Arg-Gly-Asp-Ser]
internalization in melanoma cells vs HUVEC (SK-MEL-110 and HUVEC): markedly higher in melanoma cells vs HUVEC
inhibition of FGF-2-induced proliferation (SK-MEL-110 [1]; collagen-IV 50 μg/ml, mean ± SD of 5 experiments in duplicate, RGDS p < 0.005): 46 ± 16%
internalization kinetics (SK-MEL-110 [2]): in a time-dependent manner
Kd [3]: 30 µM
Kd (GST-Full length survivin): 27.5 µM

COC(=O)C[C@H](NC(=O)[C@H](C)NC(=O)[C@@H](NC(=O)OCc1ccccc1)C(C)C)C(=O)CF [Z-VAD-FMK] (Cbz-Val-Ala-Asp(OMe)-CH2F)
effect on RGDS anti-proliferative action (SK-MEL-110 [4]): significantly abolished the RGDS anti-proliferative effect

Cc1ccc(-c2cc(C(F)(F)F)nn2-c2ccc(S(N)(=O)=O)cc2)cc1 [colecoxib]
survivin expression (survivin): down-regulate survivin expression

Arg-Gly-Glu-Ser [RGES]
anti-proliferative effect (SK-MEL-110 [1]; collagen-IV): no anti-proliferative effect
caspase-3 activation (active caspase-3): no effect on caspase-3 activation
internalization relative to RGDS (less than RGDS) (SK-MEL-110 [5]; 24 h, RGES less than RGDS): 25%
positive cells (internalization) (SK-MEL-110 [5]; 24 h incubation, PE-avidin, FACS, three independent experiments): about 30%
internalization kinetics (SK-MEL-110 [5]; 2, 6, 16 and 24 h, FACS): internalized with slower kinetics
